Laboratory results as given in patent publication US20060292151A1, “L-SIGN polymorphisms and methods involving use of same” (priority 2004, published 2006).

System: L-SIGN alleles: L-SIGN-4, -5, -7 and -9
Experiment: Inhibition of L-SIGN-mediated trans-infection of Hep3B cells by HCVpp
Type: cell-based, human
Details: mannan 20 μg/ml
Procedure: FIG. 9. Inhibition of trans-infection with agents to the CRD of L-SIGN. HeLa or HeLa-SIGN transfectants stably expressing the indicated polymorphic forms of L-SIGN were incubated with mannan (20 μg/ml), anti-CRD mAbs (120604 and 120612, 10 μg/ml), or IgG2a isotype-control IgG (10 μg/ml) prior to addition to HCVpp. Cells were incubated an additional 2 h, washed and combined with Hep3B cells. Cultures were maintained for 48 h prior to lysis and measurement of luciferase activity. The data represent the percent of trans-infection relative to that observed in the absence of inhibitor. The values were calculated as (net RLU in the presence of inhibitor)/(net RLU in the absence of inhibitor)×100, where net RLU represents the difference in RLU values observed between transfected and parental HeLa cells. Negative values are omitted for clarity. The data represent the average of 3 independent measurements. […]
Parental HeLa cells and HeLa-SIGN transfectants (2×10^4) were incubated with 200 μl of viral supernatant for 2 h at 37° C. […] Luciferase activity was measured in cell lysates using the Luciferase Assay System (Promega, Madison, Wis.) according to the manufacturer's instructions. […] Data were analyzed for statistical significance using 2-sided t-tests and a significance level of P<0.05 unless otherwise indicated. […]

Sequence of L-SIGN alleles: L-SIGN-4, -5, -7 and -9 (Q9H2X3 250-399 limits assumed): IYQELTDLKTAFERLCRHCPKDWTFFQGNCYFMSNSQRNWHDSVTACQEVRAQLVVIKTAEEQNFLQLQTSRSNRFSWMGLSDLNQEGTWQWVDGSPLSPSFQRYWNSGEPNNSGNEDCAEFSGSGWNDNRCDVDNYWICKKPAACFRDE

mannan
average level of inhibition of trans-infection across the different isoforms: 77%
level of trans-infection inhibited (range over L-SIGN-4, -5, -7 and -9) (30 min before HCVpp, Hep3B co-culture 48 h, luciferase): 47-95%
